As usually defined, the IC50 is the midpoint of a concentration-inhibition curve. Read a high IC50 as lower potency.

Data on 2 compounds can be found in publication PMC4254530 (Bioorganic & medicinal chemistry, 2014).

The target of assay [1] is T1, PKCε (Homo sapiens, UniProt Q02156).
T1 sequence (Q02156 1-737): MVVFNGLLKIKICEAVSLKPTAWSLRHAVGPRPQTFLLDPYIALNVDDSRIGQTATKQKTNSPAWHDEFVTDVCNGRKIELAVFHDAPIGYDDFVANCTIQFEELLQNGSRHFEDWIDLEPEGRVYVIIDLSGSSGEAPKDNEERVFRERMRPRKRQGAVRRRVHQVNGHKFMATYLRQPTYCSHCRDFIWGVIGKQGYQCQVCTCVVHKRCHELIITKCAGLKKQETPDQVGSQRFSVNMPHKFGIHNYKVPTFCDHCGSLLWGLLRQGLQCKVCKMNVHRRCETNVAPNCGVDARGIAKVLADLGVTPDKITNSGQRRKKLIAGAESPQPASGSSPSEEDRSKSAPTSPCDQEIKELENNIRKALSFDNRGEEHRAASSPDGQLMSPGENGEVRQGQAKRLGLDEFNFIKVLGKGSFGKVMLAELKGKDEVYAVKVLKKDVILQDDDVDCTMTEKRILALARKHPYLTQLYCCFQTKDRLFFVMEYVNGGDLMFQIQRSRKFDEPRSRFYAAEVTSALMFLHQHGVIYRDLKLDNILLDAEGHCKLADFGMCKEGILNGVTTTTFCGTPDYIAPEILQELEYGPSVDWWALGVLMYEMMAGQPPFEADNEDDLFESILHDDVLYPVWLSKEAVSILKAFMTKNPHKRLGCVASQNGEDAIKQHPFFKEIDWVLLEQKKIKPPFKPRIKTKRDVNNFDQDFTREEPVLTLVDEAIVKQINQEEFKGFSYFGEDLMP
The assay is described as follows: Kinase selectivity assay PKCε. It is filed as biochemical. The settings on record: read-out: PKCε % inhibition at 20 μM.

In assay [2] the target is CDK2/A (Homo sapiens, UniProt P24941). The assay is described as follows: Kinase selectivity assay CDK2/A. To be noted: read-out: CDK2/A % inhibition at 20 μM. It is filed as biochemical.
Assay [3] deals with GSK3α (Homo sapiens, UniProt P49840). The assay is described as follows: Kinase selectivity assay GSK3α. It is filed as biochemical. The settings on record: read-out: GSK3α % inhibition at 20 μM.
In assay [4] the target is full length hCDK5/p25 (Homo sapiens, UniProt Q00535). Kind of assay: γ-33P ATP filter binding assay, hCDK5/p25. It is filed as biochemical. The settings on record: for IC50: CDK5/p25 IC50, ATP (Km) 30 μM, Table 5; for inhibition at 50 µM: read-out: CDK5/p25 inhibition @50μM.
Assay [5] deals with CK1a1 (Homo sapiens, UniProt P48729). Kind of assay: Kinase selectivity assay CK1a1. It is filed as biochemical. To be noted: read-out: CK1a1 % inhibition at 20 μM.
Assay [6] addresses KDR/VEGFR2 (Homo sapiens, UniProt P35968). The assay is described as follows: Kinase selectivity assay KDR/VEGFR2. It is filed as biochemical. To be noted: read-out: KDR/VEGFR2 % inhibition at 20 μM.
The target in assay [7] is CDK4/D1 (Homo sapiens, UniProt P11802). The assay is described as follows: Kinase selectivity assay CDK4/D1. To be noted: 20 μM compound, ATP Km 90 μM. It is filed as biochemical.
In assay [8] the target is CDK1/B (Homo sapiens, UniProt P06493). Kind of assay: Kinase selectivity assay CDK1/B. It is filed as biochemical.
The target in assay [9] is CDK6/D1 (Homo sapiens, UniProt Q00534). Kind of assay: Kinase selectivity assay CDK6/D1. It is filed as biochemical. To be noted: 20 μM compound, ATP Km 30 μM.
Assay [10] concerns the target CDK2/E (Homo sapiens, UniProt P24941). The assay is described as follows: Kinase selectivity assay CDK2/E. It is filed as biochemical. The settings on record: read-out: CDK2/E % inhibition at 20 μM.
Assay [11] addresses PKA (Homo sapiens, UniProt P17612). Kind of assay: Kinase selectivity assay PKA. It is filed as biochemical.
For assay [12], the target named is PKCα (Homo sapiens, UniProt P17252). The assay is described as follows: Kinase selectivity assay PKCα. It is filed as biochemical.
Assay [13] addresses DYRK1/DYRK1A (Homo sapiens, UniProt Q13627). Kind of assay: Kinase selectivity assay DYRK1/DYRK1A. It is filed as biochemical. The settings on record: read-out: DYRK1/DYRK1A % inhibition at 20 μM.
In assay [14] the target is GSK3β (Homo sapiens, UniProt P49841). The assay is described as follows: Kinase selectivity assay GSK3β. It is filed as biochemical. To be noted: read-out: GSK3β % inhibition at 20 μM.
The target in assay [15] is CDK5/p25 (Homo sapiens, UniProt Q00535). Kind of assay: ATP competitive binding assay. It is filed as biochemical. To be noted: IC50 at increasing ATP concentrations, Lineweaver-Burk plot.
Assay [16] has as its target WEE1 (Homo sapiens, UniProt P30291). The assay is described as follows: Kinase selectivity assay WEE1. It is filed as biochemical.
In assay [17] the target is full length hCDK2/E (Homo sapiens, UniProt P24941). Kind of assay: γ-33P ATP filter binding assay, hCDK2/E.

full length hCDK5/p25, sequence (Q00535 whole entry): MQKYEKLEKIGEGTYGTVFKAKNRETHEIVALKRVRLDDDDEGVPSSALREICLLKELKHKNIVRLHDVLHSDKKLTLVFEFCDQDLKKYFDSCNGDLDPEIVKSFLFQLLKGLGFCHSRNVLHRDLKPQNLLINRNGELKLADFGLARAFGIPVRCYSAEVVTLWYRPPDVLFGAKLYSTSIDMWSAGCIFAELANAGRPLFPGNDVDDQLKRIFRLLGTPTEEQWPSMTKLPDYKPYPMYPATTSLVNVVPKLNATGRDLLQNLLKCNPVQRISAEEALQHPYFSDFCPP
full length hCDK5/p25, sequence (Q15078 99-307 partner limits assumed): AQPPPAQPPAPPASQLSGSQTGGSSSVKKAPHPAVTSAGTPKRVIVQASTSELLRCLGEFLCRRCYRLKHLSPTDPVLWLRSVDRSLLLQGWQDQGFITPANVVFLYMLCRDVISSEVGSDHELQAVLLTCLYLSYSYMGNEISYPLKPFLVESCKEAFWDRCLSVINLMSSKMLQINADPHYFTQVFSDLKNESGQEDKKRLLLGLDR
CDK5/p25, sequence (Q00535 whole entry): as the sequence (Q00535 whole entry) above
CDK5/p25, sequence (Q15078 99-307 partner limits assumed): as the sequence (Q15078 99-307 partner limits assumed) above
KDR/VEGFR2, sequence (P35968 20-1356): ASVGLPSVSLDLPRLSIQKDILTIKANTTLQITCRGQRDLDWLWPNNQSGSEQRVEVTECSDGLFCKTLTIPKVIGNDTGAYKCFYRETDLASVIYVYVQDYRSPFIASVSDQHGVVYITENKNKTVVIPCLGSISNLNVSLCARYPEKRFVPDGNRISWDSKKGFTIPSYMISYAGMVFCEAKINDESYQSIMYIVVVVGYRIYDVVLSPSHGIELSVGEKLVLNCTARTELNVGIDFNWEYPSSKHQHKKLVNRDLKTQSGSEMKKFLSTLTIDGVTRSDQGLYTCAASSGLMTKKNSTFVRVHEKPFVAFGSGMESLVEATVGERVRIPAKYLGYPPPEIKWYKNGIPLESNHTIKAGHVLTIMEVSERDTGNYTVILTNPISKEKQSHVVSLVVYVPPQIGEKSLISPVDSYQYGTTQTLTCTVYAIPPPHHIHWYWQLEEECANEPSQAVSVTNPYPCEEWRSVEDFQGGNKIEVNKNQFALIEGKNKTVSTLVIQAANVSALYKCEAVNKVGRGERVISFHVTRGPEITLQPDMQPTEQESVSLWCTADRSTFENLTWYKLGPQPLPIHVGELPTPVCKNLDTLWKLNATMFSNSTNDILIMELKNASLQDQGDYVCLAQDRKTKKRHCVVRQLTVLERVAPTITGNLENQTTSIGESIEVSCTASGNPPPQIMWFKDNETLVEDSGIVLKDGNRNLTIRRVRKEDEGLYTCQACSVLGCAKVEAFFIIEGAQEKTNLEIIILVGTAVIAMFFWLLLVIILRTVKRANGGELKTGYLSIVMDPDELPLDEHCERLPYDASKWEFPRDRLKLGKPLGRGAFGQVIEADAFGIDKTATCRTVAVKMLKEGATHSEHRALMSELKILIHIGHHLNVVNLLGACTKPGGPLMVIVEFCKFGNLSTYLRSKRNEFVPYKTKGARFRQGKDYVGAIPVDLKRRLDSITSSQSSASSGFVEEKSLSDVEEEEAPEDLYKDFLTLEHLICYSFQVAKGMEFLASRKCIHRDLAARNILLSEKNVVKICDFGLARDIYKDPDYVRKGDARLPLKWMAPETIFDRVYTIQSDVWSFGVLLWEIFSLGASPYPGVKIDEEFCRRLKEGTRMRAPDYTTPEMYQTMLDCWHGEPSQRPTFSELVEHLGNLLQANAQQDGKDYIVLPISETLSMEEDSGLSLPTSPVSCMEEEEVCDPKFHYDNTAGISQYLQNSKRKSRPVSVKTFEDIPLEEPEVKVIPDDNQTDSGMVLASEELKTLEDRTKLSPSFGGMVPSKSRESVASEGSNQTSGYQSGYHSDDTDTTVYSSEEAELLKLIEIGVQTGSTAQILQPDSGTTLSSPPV
CDK1/B, sequence (P06493 whole entry): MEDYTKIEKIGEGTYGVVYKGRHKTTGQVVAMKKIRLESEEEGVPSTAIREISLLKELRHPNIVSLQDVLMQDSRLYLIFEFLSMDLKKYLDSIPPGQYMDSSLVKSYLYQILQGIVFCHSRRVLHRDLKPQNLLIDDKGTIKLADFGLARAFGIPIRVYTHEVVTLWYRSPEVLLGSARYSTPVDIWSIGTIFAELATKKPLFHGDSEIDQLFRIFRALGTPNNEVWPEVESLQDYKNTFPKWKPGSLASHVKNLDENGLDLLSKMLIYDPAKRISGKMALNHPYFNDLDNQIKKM
CDK1/B, sequence (P14635 whole entry partner): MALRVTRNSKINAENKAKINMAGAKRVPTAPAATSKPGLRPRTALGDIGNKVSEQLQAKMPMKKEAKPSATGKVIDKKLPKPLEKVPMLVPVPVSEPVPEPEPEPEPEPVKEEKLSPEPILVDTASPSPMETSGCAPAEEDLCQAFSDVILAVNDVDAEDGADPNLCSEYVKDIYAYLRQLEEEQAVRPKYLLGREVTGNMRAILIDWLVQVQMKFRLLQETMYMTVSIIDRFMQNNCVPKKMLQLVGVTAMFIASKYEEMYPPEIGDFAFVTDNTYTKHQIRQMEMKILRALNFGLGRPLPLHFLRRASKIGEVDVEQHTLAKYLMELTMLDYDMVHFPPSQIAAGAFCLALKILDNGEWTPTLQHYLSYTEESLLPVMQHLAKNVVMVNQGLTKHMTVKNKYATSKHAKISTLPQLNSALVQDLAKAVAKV
WEE1, sequence (P30291 whole entry): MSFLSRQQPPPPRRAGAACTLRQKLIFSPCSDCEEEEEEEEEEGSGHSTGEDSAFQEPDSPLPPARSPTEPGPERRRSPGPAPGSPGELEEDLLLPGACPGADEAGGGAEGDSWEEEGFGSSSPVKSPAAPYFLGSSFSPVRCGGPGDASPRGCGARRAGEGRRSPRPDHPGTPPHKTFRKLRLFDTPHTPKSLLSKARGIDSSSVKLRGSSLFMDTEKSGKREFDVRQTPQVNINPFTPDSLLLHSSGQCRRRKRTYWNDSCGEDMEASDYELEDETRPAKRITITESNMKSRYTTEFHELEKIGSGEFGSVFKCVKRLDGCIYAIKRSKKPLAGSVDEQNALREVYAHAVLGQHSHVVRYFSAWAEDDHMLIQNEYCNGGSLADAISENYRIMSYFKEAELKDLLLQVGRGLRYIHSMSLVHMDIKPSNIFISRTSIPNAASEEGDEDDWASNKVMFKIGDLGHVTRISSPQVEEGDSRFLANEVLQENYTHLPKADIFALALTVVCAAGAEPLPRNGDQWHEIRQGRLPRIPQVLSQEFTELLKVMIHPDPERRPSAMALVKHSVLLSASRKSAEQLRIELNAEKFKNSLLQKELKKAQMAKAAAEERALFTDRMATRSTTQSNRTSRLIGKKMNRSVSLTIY
CK1a1, sequence (P48729 whole entry): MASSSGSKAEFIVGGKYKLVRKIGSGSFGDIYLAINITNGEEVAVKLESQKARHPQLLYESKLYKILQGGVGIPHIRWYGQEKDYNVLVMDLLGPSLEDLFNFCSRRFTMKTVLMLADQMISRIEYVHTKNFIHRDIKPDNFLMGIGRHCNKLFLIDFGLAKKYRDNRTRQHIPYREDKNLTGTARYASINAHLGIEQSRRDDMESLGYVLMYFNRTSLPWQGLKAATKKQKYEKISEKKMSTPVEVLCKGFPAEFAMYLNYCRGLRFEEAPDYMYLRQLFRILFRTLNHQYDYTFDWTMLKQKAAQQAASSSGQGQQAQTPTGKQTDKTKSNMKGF
GSK3β, sequence (P49841 whole entry): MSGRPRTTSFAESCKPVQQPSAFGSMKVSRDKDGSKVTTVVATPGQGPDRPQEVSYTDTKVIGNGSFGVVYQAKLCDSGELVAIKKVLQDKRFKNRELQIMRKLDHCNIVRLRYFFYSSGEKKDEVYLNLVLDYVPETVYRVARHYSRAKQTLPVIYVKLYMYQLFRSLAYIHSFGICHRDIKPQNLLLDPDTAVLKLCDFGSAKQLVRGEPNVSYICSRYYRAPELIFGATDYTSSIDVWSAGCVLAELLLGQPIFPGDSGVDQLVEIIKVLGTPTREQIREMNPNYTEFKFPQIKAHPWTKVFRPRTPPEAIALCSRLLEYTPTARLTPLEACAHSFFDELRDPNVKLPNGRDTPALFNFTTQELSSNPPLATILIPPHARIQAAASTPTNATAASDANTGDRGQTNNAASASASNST

Turning to `O=C(Nc1ccccn1)c1cc2c(Cl)nc3ccccc3c2s1` [Compound 25w, 4-chloro-N-(pyridin-2-yl)thieno[3,2-c]quinoline-2-carboxamide], the inhibition at 20 µM in assay [1] worked out at 4%; in assay [2], 45%; in assay [3], 22%; in assay [5] it was 19%; in [6], 44%; in [8] (read-out: CDK1/B % inhibition at 20 μM), 35%. For the same compound, the inhibition at 20 µM was 6% in assay [10]; 1% in assay [12] (read-out: PKCα % inhibition at 20 μM); 4% in assay [13]; 41% in assay [14]; 2% in [16] (read-out: WEE1 % inhibition at 20 μM). In assay [4], this compound yielded an IC50 of 3.8 µM. Besides, the inhibition at 50 µM in assay [4] stood at 75.4%; in [17] (read-out: CDK2/E inhibition @50μM, 50 μM compound, ATP (Km) 65 μM, Table 5), 21.8%. Besides, in assay [7], the “CDK4/D1 % inhibition at 20 μM” value is “No inhibition”. In assay [9], the “CDK6/D1 % inhibition at 20 μM” value was “No inhibition”. In addition, in [11] (20 μM compound, ATP Km 20 μM), the “PKA % inhibition at 20 μM” value is “No inhibition”. Besides, the “mode of inhibition with respect to ATP” value in assay [15] is recorded as “ATP non-competitive inhibition”.
Turning to `O=C(Nc1ccccc1C(=O)O)c1cc2c(=O)[nH]c3ccccc3c2s1` [Compound 25s, 2-(4-oxo-4,5-dihydrothieno[3,2-c]quinoline-2-carboxamido)benzoic acid], the inhibition at 20 µM worked out at 7% in assay [1]; 50% in assay [2]; 79% in [3]; 41% in assay [5]; 88% in [6]; 5% in assay [10]. The inhibition at 20 µM turned out to be 89% in assay [11] (read-out: PKA % inhibition at 20 μM), 23% in [13] and 81% in assay [14]. Also, in [4], the IC50 amounted to 4.3 µM. Besides, the inhibition at 50 µM in assay [4] was 70.6%. The “CDK4/D1 % inhibition at 20 μM” value in assay [7] is recorded as “No inhibition”. For the same compound, the “CDK1/B % inhibition at 20 μM” value in assay [8] (20 μM compound, ATP Km 5 μM) is listed as “No inhibition”. Moreover, the “CDK6/D1 % inhibition at 20 μM” value in assay [9] was “No inhibition”. In addition, the “PKCα % inhibition at 20 μM” value in [12] (20 μM compound, ATP Km 10 μM) is listed as “No inhibition”. Moreover, the “mode of inhibition with respect to ATP” value in assay [15] was “ATP non-competitive inhibition”. Besides, the “WEE1 % inhibition at 20 μM” value in [16] (20 μM compound, ATP Km 50 μM) is recorded as “No inhibition”. In assay [17] (50 μM compound, ATP (Km) 65 μM, Table 5), the “CDK2/E inhibition @50μM” value was “No inhibition”.
